Experimental data published in patent publication US10471046B2, “Method for treating, preventing, or reducing the risk of skin infection” (Melinta Subsidiary Corp., priority 2014, dated 2019).
In brackets after ≈: the same amount, converted by molar mass.

System: S. aureus
Assay: Minimum inhibitory concentrations (MICs) for S. aureus of exemplary compounds (Table 2)
Type: cell-based
Conditions: Staphylococcus aureus, minimum inhibitory concentrations for S. aureus; read-out: MICs
Method in brief: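 MICs (μg/mL) against S. aureus come from microtiter-tray dilution susceptibility testing per NCCLS M7-A5, comparing growth with and without compound.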

| Compound | MIC [µg/mL] |
| --- | --- |
| CC(=O)NC[C@H]1CN(c2ccc(-c3ccc(C(=N)NCc4ccncc4)cc3)c(F)c2)C(=O)O1 [Compound 4080, N-{3-[2-Fluoro-4′-(N-pyridin-4-ylmethyl-carbamimidoyl)-biphenyl-4-yl]-2-oxo-oxamlidin-5-(S)-ylmethyl}-acetamide] | 128 (≈ 277 µM) |
| COc1cc(CN(Cc2ccc(-c3ccc(N4C[C@H](CNC(C)=O)OC4=O)cc3F)cc2)Cc2ccc(O)c(OC)c2)ccc1O [Compound 4037, N-[3-(4′-{[Bis-(4-hydroxy-3-methoxy-benzyl)-amino]-methyl}-2-fluoro-biphenyl-4-yl)-2-oxo-oxazolidin-5-(S)-ylmethyl]-acetamide] | 2 (≈ 3.18 µM) |
| CC(=O)NC[C@H]1CN(c2ccc(-c3ccc(Cn4cnnn4)cc3)c(F)c2)C(=O)O1 [Compound 1047, N-[3-(2-Fluoro-4′-tetrazol-1-ylmethyl-biphenyl-4-yl)-2-oxo-oxazolidin-5-(S)-ylmethyl]-acetamide] | 0.25 (≈ 0.609 µM) |
| CC(=O)NC[C@H]1CN(c2ccc(-c3ccc(S(=O)(=O)Cc4ccncc4)cc3)c(F)c2)C(=O)O1 [Compound 3003, N-{3-[2-Fluoro-4′-(pyridin-4-ylmethanesulfonyl)-biphenyl-4-yl]-2-oxo-oxazolidin-5-(S)-ylmethyl}-acetamide] | 2 (≈ 4.14 µM) |
| CC(=O)NC[C@H]1CN(c2ccc(-c3ccc(CNCc4ccc(-c5ccccc5)s4)cc3)c(F)c2)C(=O)O1 [Compound 4084, N-[3-(2-Fluoro-4′-{[(5-phenyl-thiophen-2-ylmethyl)-amino]-methyl}-biphenyl-4-yl)-2-oxo-oxazolidin-5-(S)-ylmethyl]-acetamide] | 128 (≈ 242 µM) |
| CC(=O)NC[C@H]1CN(c2ccc(-c3ccc(CNCc4cc5ccccc5o4)cc3)c(F)c2)C(=O)O1 [Compound 4020] | 2 (≈ 4.1 µM) |
| CC(=O)NC[C@H]1CN(c2ccc(-c3ccc(CNC(=O)/C=C/c4cccn(C)c4=O)cc3)c(F)c2)C(=O)O1 [Compound 4194, N-{4′-[5-(S)-(Acetylamino-methyl)-2-oxo-oxazolidin-3-yl]-2′-fluoro-biphenyl-4-ylmethyl}-3-(1-methyl-2-oxo-1,2-dihydro-pyridin-3-yl)-acrylamide] | 2 (≈ 3.86 µM) |
| CC(=O)NC[C@H]1CN(c2ccc(-c3ccc(CNCc4ccncc4)c(F)c3F)c(F)c2)C(=O)O1 [Compound 4089, N-[2-Oxo-3-(2,2′,3′-trifluoro-4′-{[(pyridin-4-ylmethyl)-amino]-methyl}-biphenyl-4-yl)-oxazolidin-5-(S)-ylmethyl]-acetamide] | 2 (≈ 4.13 µM) |
| CC(=O)NC[C@H]1CN(c2ccc(-c3ccc(CNCc4ccc(-c5ccccn5)cc4)cc3)c(F)c2)C(=O)O1 [Compound 4017, N-(3-{2-Fluoro-4′-[(4-pyridin-2-yl-benzylamino)-methyl]-biphenyl-4-yl}-2-oxo-oxazolidin-5-(S)-ylmethyl)-acetamide] | 2 (≈ 3.81 µM) |
| CC(=O)NC[C@H]1CN(c2ccc(-c3ccc(C[S+]([O-])c4ccncc4)cc3)c(F)c2)C(=O)O1 (stereo partly drawn) [Compound 2022, N-{3-[2-Fluoro-4′-(pyridine-4-sulfinylmethyl)-biphenyl-4-yl]-2-oxo-oxazolidin-5-(S)-ylmethyl}-acetamide] | 2 (≈ 4.28 µM) |
| CC(=O)NC[C@H]1CN(c2ccc(-c3ccc([C@@H](NCc4ccccn4)C(N)=O)cc3)c(F)c2)C(=O)O1 [Compound 4185] | 16 (≈ 32.6 µM) |
| CC(=O)NC[C@H]1CN(c2ccc(-c3ccc(Cn4cc(C(=O)O)cn4)cc3)c(F)c2)C(=O)O1 [Compound 1051, 1-{4′-[5-(S)-(Acetylamino-methyl)-2-oxo-oxazolidin-3-yl]-2′-fluoro-biphenyl-4-ylmethyl}-1H-pyrazole-4-carboxylic acid] | 1 (≈ 2.21 µM) |
| CC(=O)NC[C@H]1CN(c2ccc(-c3ccc(CSc4cnn[nH]4)cc3)c(F)c2)C(=O)O1 [Compound 2016, N-{3-[2-Fluoro-4′-(3H-[1,2,3]triazol-4-ylsulfanylmethyl)-biphenyl-4-yl]-2-oxo-oxazolidin-5-(S)-ylmethyl}-acetamide] | 0.25 (≈ 0.566 µM) |
| CC(=O)NC[C@H]1CN(c2ccc(-c3ccc(C(C)NCc4nccs4)cc3)c(F)c2)C(=O)O1 (mixture of isomers) [Compound 4145, N-[3-(2-Fluoro-4′-{1-(R/S)-[(thiazol-2-ylmethyl)-amino]-ethyl}-biphenyl-4-yl)-2-oxo-oxazolidin-5-(S)-ylmethyl]-acetamide] | 2 |
| CC(=O)NC[C@H]1CN(c2ccc(-c3ccc(CS(=O)(=O)c4cnn[nH]4)cc3)c(F)c2)C(=O)O1 [Compound 2025, N-{3-[2-Fluoro-4′-(3H-[1,2,3]triazole-4-sulfonylmethyl)-biphenyl-4-yl]-2-oxo-oxazolidin-5-(S)-ylmethyl}-acetamide] | 8 (≈ 16.9 µM) |
| CC(=O)NC[C@H]1CN(c2ccc(-c3ccc(CNCc4ccncc4)cn3)c(F)c2)C(=O)O1 [Compound 4052, N-{3-[3-Fluoro-4-(5-{[(pyridin-4-ylmethyl)-amino]-methyl}-pyridin-2-yl)-phenyl]-2-oxo-oxazolidin-5-(S)-ylmethyl}-acetamide] | 64 (≈ 142 µM) |

| Compound | MIC [µg/mL] |
| --- | --- |
| CC(=O)NC[C@H]1CN(c2ccc(-c3ccc(CNC(=O)c4cnc5ccccc5c4)cc3)c(F)c2)C(=O)O1 [Compound 4009, Quinoline-3-carboxylic acid {4′-[5-(S)-(acetylamino-methyl)-2-oxo-oxazolidin-3-yl]-2′-fluoro-biphenyl-4-ylmethyl}-amide] | 32 (≈ 62.4 µM) |
| CC(=O)NC[C@H]1CN(c2ccc(-c3ccc([C@H](CO)N4CCN(C=O)CC4)cc3)c(F)c2)C(=O)O1 [Compound 1045, N-(3-{2-Fluoro-4′-[1-(R)-(4-formyl-piperazin-1-yl)-2-hydroxy-ethyl]-biphenyl-4-yl}-2-oxo-oxazolidin-5-(S)-ylmethyl)-acetamide] | 0.5 (≈ 1.03 µM) |
| CC(=O)NC[C@H]1CN(c2ccc(-c3ccc(CNCc4ccc(N(C)C)cc4)cc3)c(F)c2)C(=O)O1 [Compound 4062, N-(3-{4′-[(4-Dimethylamino-benzylamino)-methyl]-2-fluoro-biphenyl-4-yl}-2-oxo-oxazolidin-5-(S)-ylmethyl)-acetamide] | 2 (≈ 4.08 µM) |
| CC(=O)NC[C@H]1CN(c2ccc(-c3ccc(CN/C(=N\O)c4ccncc4)cc3)c(F)c2)C(=O)O1 [Compound 4285, N-[3-(2-Fluoro-4′-{[(N-hydroxy-pyridine-4-carboximidoyl)-amino]-methyl}-biphenyl-4-yl)-2-oxo-oxazolidin-5-(S)-ylmethyl]-acetamide] | 8 (≈ 16.8 µM) |
| CC(=O)NC[C@H]1CN(c2ccc(-c3ccc(C(=O)NCCc4ccccn4)cc3)c(F)c2)C(=O)O1 [Compound 4115, 4′-[5-(S)-(Acetylamino-methyl)-2-oxo-oxazolidin-3-yl]-2′-fluoro-biphenyl-4-carboxylic acid (2-pyridin-2-yl-ethyl)-amide] | 0.5 (≈ 1.05 µM) |
| CC(=O)NC[C@H]1CN(c2ccc(-c3ccc(CNCC4CCC=CO4)cc3)c(F)c2)C(=O)O1 (stereo partly drawn) [Compound 4131, N-[3-(4′-{[(3,4-Dihydro-2H-pyran-2-ylmethyl)-amino]-methyl}-2-fluoro-biphenyl-4-yl)-2-oxo-oxazolidin-5-(S)-ylmethyl]-acetamide] | 1 (≈ 2.21 µM) |
| CC(=O)NC[C@H]1CN(c2ccc(-c3ccc(Cn4cnc(CO)c4)cc3)c(F)c2)C(=O)O1 [Compound 1050, N-{3-[2-Fluoro-4′-(4-hydroxymethyl-imidazol-1-ylmethyl)-biphenyl-4-yl]-2-oxo-oxazolidin-5-(S)-ylmethyl}-acetamide] | 2 (≈ 4.56 µM) |
| CC(=O)NC[C@H]1CN(c2ccc(-c3ccc(Cn4nnnc4N)cc3)c(F)c2)C(=O)O1 [Compound 1025, N-{3-[4′-(5-Amino-tetrazol-1-ylmethyl)-2-fluoro-biphenyl-4-yl]-2-oxo-oxazolidin-5-(S)-ylmethyl}-acetamide] | 0.5 (≈ 1.18 µM) |
| CC(=O)NC[C@H]1CN(c2ccc(-c3ccc(CNCc4ccnc5ccccc45)cc3)c(F)c2)C(=O)O1 [Compound 4016, N-[3-(2-Fluoro-4′-{[(quinolin-4-ylmethyl)-amino]-methyl}-biphenyl-4-yl)-2-oxo-oxazolidin-5-(S)-ylmethyl]-acetamide] | 1 (≈ 2.01 µM) |
| CC(=O)NC[C@H]1CN(c2ccc(-c3ccc(CS(=O)(=O)Nc4cccnc4)cc3)c(F)c2)C(=O)O1 [Compound 2045, N-{3-[2-Fluoro-4′-(pyridin-3-ylsulfamoylmethyl)-biphenyl-4-yl]-2-oxo-oxazolidin-5-(S)-ylmethyl}-acetamide] | 2 (≈ 4.01 µM) |
| CC(=O)NC[C@H]1CN(c2ccc(-c3ccc([C@H](O)Cn4ccnc4)cc3)c(F)c2)C(=O)O1 [Compound 1046, N-{3-[2-Fluoro-4′-(1-(S)-hydroxy-2-imidazol-1-yl-ethyl)-biphenyl-4-yl]-2-oxo-oxazolidin-5-(S)-ylmethyl}-acetamide] | 1 (≈ 2.28 µM) |
| CC(=O)NC[C@H]1CN(c2ccc(-c3ccc(CNCCN4CCNC4=O)cc3)c(F)c2)C(=O)O1 [Compound 4114, N-[3-(2-Fluoro-4′-{[2-(2-oxo-imidazolidin-1-yl)-ethylamino]-methyl}-biphenyl-4-yl)-2-oxo-oxazolidin-5-(S)-ylmethyl]-acetamide] | 16 (≈ 34.1 µM) |
| CC(=O)NC[C@H]1CN(c2ccc(-c3ccc(CNCCN4CCOCC4)cc3)c(F)c2)C(=O)O1 [Compound 4318, N-(3-{2-Fluoro-4′-[(2-morpholin-4-yl-ethylamino)-methyl]-biphenyl-4-yl}-2-oxo-oxazolidin-5-(S)-ylmethyl)-acetamide] | 16 (≈ 34 µM) |
| CC(=O)NC[C@H]1CN(c2ccc(-c3ccc(Cn4cncc4C)cc3)c(F)c2)C(=O)O1 [Compound 1067, N-{3-[2-Fluoro-4′-(5-methyl-imidazol-1-ylmethyl)-biphenyl-4-yl]-2-oxo-oxazolidin-5-(S)-ylmethyl}-acetamide] | 1 (≈ 2.37 µM) |
| CC(=O)NC[C@H]1CN(c2ccc(-c3ccc(CNCc4nn(C)cc4Cl)cc3)c(F)c2)C(=O)O1 [Compound 4139, N-[3-(4′-{[(4-Chloro-1-methyl-1H-pyrazol-3-ylmethyl)-amino]-methyl}-2-fluoro-biphenyl-4-yl)-2-oxo-oxazolidin-5-(S)-ylmethyl]-acetamide] | 2 (≈ 4.12 µM) |

Same assay, conditions: Staphylococcus aureus, read-out: MICs

| Compound | MIC [µg/mL] |
| --- | --- |
| CC(=O)NC[C@H]1CN(c2cc(F)c(-c3ccc(Cn4cc(CN(C)C)nn4)cc3)c(F)c2)C(=O)O1 [Compound 1019, N-{3-[4′-(4-Dimethylaminomethyl-[1,2,3]triazol-1-ylmethyl)-2,6-difluoro-biphenyl-4-yl]-2-oxo-oxazolidin-5-(S)-ylmethyl}-acetamide] | 2 (≈ 4.13 µM) |
